According to article PMC6277767, “Broad and Region-Specific Impacts of the Synthetic Cannabinoid CP 55,940 in Adolescent and Adult Female Mouse Brains” (Frontiers in Molecular Neuroscience, 2018):

System: CD1 female mouse brain lipidome
Test: Brain-region lipid levels (HPLC/MS/MS lipidomics) 2 h after single i.p. 3 mg/kg CP 55,940 vs vehicle
Type: in vivo
Design: N-arachidonoyl phenylalanine level, Mean / N-stearoyl tryptophan level, Mean / N-stearoyl proline level, Mean / N-stearoyl leucine level, Mean / N-stearoyl phenylalanine level, Mean / N-stearoyl serine level, Mean / N-stearoyl methionine level, Mean: unit: moles per gram
Details: hippocampus
Procedure: The Bloomington Institutional Animal Care and Use Committee of Indiana University reviewed and approved the animal procedures. Female mice from the CD1 strain were utilized to match our study examining THC’s effects on the brain lipidome ([Leishman et al., 2018]). Mice were given a single i.p. injection of either 3 mg/kg CP or 1:1:18 cremophor:ethanol:saline vehicle (please refer to the section “3 mg/kg CP Is Relevant for Synthetic Cannabinoid Abuse and Has Stronger Effects on the Female Mouse Brain Lipidome During Adolescence” for a justification of dose and use of female mice). Three different age groups were given injections: PND 35 and PND 50 adolescents, and adult mice (PND 113). At least eight mice in each age group received CP and at least eight received vehicle. Matching the THC study time course ([Leishman et al., 2018]), mice were sacrificed via rapid decapitation 2 h after injection. Brains were immediately removed and flash-frozen in liquid nitrogen, and then stored at -80°C until dissections were performed. Brains were dissected on an ice-cold dissection plate into the following regions: STR, HIPP, CER, THAL, CTX, HYP, MID, and STEM. These abbreviations for these brain areas will be used exclusively when discussing the results generated by these specific dissections. Each dissected area was immediately placed in liquid nitrogen and then stored at -80°C until used for lipid extraction.
Tissue extracts were performed as previously described ([Bradshaw et al., 2006]; [Stuart et al., 2013]; [Raboune et al., 2014]; [Leishman et al., 2016a],[b], [2017], [2018]). First, samples were shock frozen in liquid nitrogen, weighed, and transferred to a centrifuge tube. The mass of the largest sample was multiplied by 50 to determine how many milliliters of HPLC-grade methanol (Fisher, Fair Lawn, NJ, United States) to add. Then, samples were spiked with 500 pmol deuterium-labeled NAGly (d8NAGly; Cayman Chemical, Ann Arbor, MI, United States). Samples were placed on ice in darkness for 2 h then individually homogenized and centrifuged at 19,000 × g for 20 min at 20°C. Supernatants were diluted with HPLC water (purified in house) to make a solution of 75% water, 25% supernatant. Lipids were partially purified on C18 solid phase extraction columns (Agilent, Palo Alto, CA, United States). A series of four elutions with 1.5 mL of 60%, 75%, 85%, and 100% methanol were collected ([Stuart et al., 2013]; [Leishman et al., 2016a],[b], [2018]).
As previously described ([Bradshaw et al., 2006]; [Tan et al., 2006]; [Smoum et al., 2010]; [Stuart et al., 2013]; [Tortoriello et al., 2013]; [Raboune et al., 2014]; [Leishman et al., 2016a],[b], [2017], [2018]), samples were analyzed using an Applied Biosystems API 3000 triple quadrupole mass spectrometer with electrospray ionization (Foster City, CA, United States). Using an Agilent XDB-C18 reversed phase analytical column and optimized mobile phase gradients, 20 μL from each elution were chromatographed. Two Shimadzu 10ADvp pumps (Columbia, MD, United States) provided the pressure for gradient elution. Mobile phase A: 20% methanol, 80% water (v/v) and 1 mM ammonium acetate (Sigma, St. Louis, MO, United States). Mobile phase B: 100% methanol, 1 mM ammonium acetate. Every method run began with 0% mobile phase B, reached 100% mobile phase B flowing at 0.2 mL/min, and gradually returned to 0% mobile phase B.
This screening library will be referred to as the lipidome when discussing data from this study. HPLC/MS/MS data were analyzed using Analyst software (Applied Biosystems) ([Bradshaw et al., 2006]; [Tan et al., 2006]; [Stuart et al., 2013]; [Tortoriello et al., 2013]; [Raboune et al., 2014]; [Leishman et al., 2016a],[b], [2017], [2018]). Chromatograms (Supplementary Figure 3) were generated by determining the retention time of analytes from the analytical column with a [M-1] or [M+1] parent peak and a fragmentation peak corresponding to the programmed values. […]

[1] = PND 35, 3 mg/kg CP 55,940 vs vehicle
[2] = PND 35 WT female mice, 3mg/kg CP 55,940

CCCCCCC(C)(C)c1ccc([C@@H]2C[C@H](O)CC[C@H]2CCCO)c(O)c1 [CP 55,940]
THC level, Mean (adult, 3 mg/kg CP 55,940): BDL
phosphoLEA: Direction (relative to Veh) (adult, 3 mg/kg CP 55,940): ↑
phosphoLEA: Magnitude (x Veh level) (adult, 3 mg/kg CP 55,940): 1.45 x Veh level
2-arachidonoyl glycerol: Direction [1]: ↓
2-arachidonoyl glycerol: Magnitude [1]: 0.79
2-linoleoyl glycerol: Direction [1]: ↓
2-linoleoyl glycerol: Magnitude [1]: 0.63
2-oleoyl glycerol: Direction [1]: ↓
2-oleoyl glycerol: Magnitude [1]: 0.82
6-ketoPGF1α: Direction [1]: ↑
6-ketoPGF1α: Magnitude [1]: 1.32
Arachidonic acid: Direction [1]: ↓
Arachidonic acid: Magnitude [1]: 0.84
Linoleic acid: Direction [1]: ↓
Linoleic acid: Magnitude [1]: 0.77
N-arachidonoyl GABA: Direction [1]: ↓
N-arachidonoyl GABA: Magnitude [1]: 0.66
N-arachidonoyl alanine: Direction [1]: ↓
N-arachidonoyl alanine: Magnitude [1]: 0.76
N-arachidonoyl ethanolamine: Direction [1]: ↓
N-arachidonoyl ethanolamine: Magnitude [1]: 0.82
N-arachidonoyl glycine: Direction [1]: ↓
N-arachidonoyl glycine: Magnitude [1]: 0.86
N-arachidonoyl phenylalanine: Direction [1]: ↓
N-arachidonoyl phenylalanine: Magnitude [1]: 0.76
N-arachidonoyl serine: Direction [1]: ↓
N-arachidonoyl serine: Magnitude [1]: 0.49
N-arachidonoyl taurine: Direction [1]: ↓
N-arachidonoyl taurine: Magnitude [1]: 0.81
N-docosahexaenoyl GABA: Direction [1]: ↓
N-docosahexaenoyl GABA: Magnitude [1]: 0.52
N-docosahexaenoyl alanine: Direction [1]: ↓
N-docosahexaenoyl alanine: Magnitude [1]: 0.76
N-docosahexaenoyl ethanolamine: Direction [1]: ↓
N-docosahexaenoyl ethanolamine: Magnitude [1]: 0.71
N-docosahexaenoyl glycine: Direction [1]: ↓
N-docosahexaenoyl glycine: Magnitude [1]: 0.83
N-docosahexaenoyl leucine: Direction [1]: ↑
N-docosahexaenoyl leucine: Magnitude [1]: 1.41
N-docosahexaenoyl serine: Direction [1]: ↓
N-docosahexaenoyl serine: Magnitude [1]: 0.74
N-linoleoyl GABA: Direction [1]: ↓
N-linoleoyl GABA: Magnitude [1]: 0.55
N-linoleoyl alanine: Direction [1]: ↓
N-linoleoyl alanine: Magnitude [1]: 0.82
N-oleoyl GABA: Direction [1]: ↓
N-oleoyl GABA: Magnitude [1]: 0.59
N-oleoyl alanine: Direction [1]: ↓
N-oleoyl alanine: Magnitude [1]: 0.75
N-oleoyl ethanolamine: Direction [1]: ↓
N-oleoyl ethanolamine: Magnitude [1]: 0.77
N-oleoyl glycine: Direction [1]: ↓
N-oleoyl glycine: Magnitude [1]: 0.87
N-oleoyl methionine: Direction [1]: ↓
N-oleoyl methionine: Magnitude [1]: 0.68
N-oleoyl valine: Direction [1]: ↑
N-oleoyl valine: Magnitude [1]: 1.27
N-palmitoyl alanine: Direction [1]: ↓
N-palmitoyl alanine: Magnitude [1]: 0.85
N-palmitoyl ethanolamine: Direction [1]: ↓
N-palmitoyl ethanolamine: Magnitude [1]: 0.79
N-palmitoyl leucine: Direction [1]: ↑
N-palmitoyl leucine: Magnitude [1]: 1.31
N-palmitoyl phenylalanine: Direction [1]: ↑
N-palmitoyl phenylalanine: Magnitude [1]: 1.26
N-palmitoyl tyrosine: Direction [1]: ↑
N-palmitoyl tyrosine: Magnitude [1]: 1.29
N-palmitoyl valine: Direction [1]: ↑
N-palmitoyl valine: Magnitude [1]: 1.24
N-stearoyl GABA: Direction [1]: ↓
N-stearoyl GABA: Magnitude [1]: 0.77
N-stearoyl alanine: Direction [1]: ↓
N-stearoyl alanine: Magnitude [1]: 0.79
N-stearoyl glycine: Direction [1]: ↓
N-stearoyl glycine: Magnitude [1]: 0.87
N-stearoyl valine: Direction [1]: ↑
N-stearoyl valine: Magnitude [1]: 1.39
Oleic acid: Direction [1]: ↓
Oleic acid: Magnitude [1]: 0.82
PGF2α: Direction [1]: ↑
PGF2α: Magnitude [1]: 1.28
2-arachidonoyl glycerol level, Mean [2]: 2.47E-10
2-linoleoyl glycerol level, Mean [2]: 1.2E-10
2-oleoyl glycerol level, Mean [2]: 9.43E-10
2-palmitoyl glycerol level, Mean [2]: 7.71E-10
6-ketoPGF1α level, Mean [2]: 1.92E-11
11-OH-THC level, Mean [2]: BDL
11-nor-9-carboxyTHC level, Mean [2]: BDL
Arachidonic acid level, Mean [2]: 4.25E-09
Cannabidiol level, Mean [2]: BDL
Linoleic acid level, Mean [2]: 9.72E-10
N- stearoyl valine level, Mean [2]: 8.48E-13
N-arachidonoyl GABA level, Mean [2]: 2.17E-11
N-arachidonoyl alanine level, Mean [2]: 1.79E-11
N-arachidonoyl dopamine level, Mean [2]: BDL
N-arachidonoyl ethanolamine level, Mean [2]: 4.75E-11
N-arachidonoyl glycine level, Mean [2]: 6.69E-11
N-arachidonoyl methionine level, Mean [2]: PISSR
N-arachidonoyl phenylalanine level, Mean [2]: 1.21E-12
N-arachidonoyl proline level, Mean [2]: BDL
N-arachidonoyl serine level, Mean [2]: 8.58E-12
N-arachidonoyl taurine level, Mean [2]: 2.18E-10
